Measured values published in patent publication US20240018157A1, “CYCLIC COMPOUNDS AND METHODS OF USING SAME” (Schrödinger, Inc., priority 2019, published 2024).

Legend:
[1] = molecular target: T1, full-length MALT1 protein His-MALT1(1-824) (Homo sapiens (Human), UniProt Q9UDY8); assay: MALT1 protease assay, Assay 1 (2 nM MALT1, Ac-LRSR-AMC substrate); type: biochemical; settings: 2 nM MALT1, 50 μM Ac-LRSR-AMC, 2 h pre-incubation, 8 hr incubation at RT
Description: MALT1 protease activity was assessed in an in vitro assay using a tetrapeptide as substrate and full-length MALT1 protein His-MALT1(1-824) purified from baculovirus-infected insect cells.
The final assay buffer includes 1 nM (Assay 2) or 2 nM (Assay 1) of MALT1 full-length protein, 50 μM Ac-LRSR-AMC substrate, 50 mM Tris pH 7.5, 600 mM Sodium Citrate, 1 mM DTT, 1 mM EDTA, and 0.05% BSA in 384-well plate format using black microtiter square well plates (Optiplate 384-F, Perkin Elmer).
Test compounds were dissolved in 100% DMSO at stock of 10 mM, with final DMSO concentration 0.1%. Test compounds were pre-incubated with MALT1 protein for 2 h at room temperature. Substrate was added after the pre-incubation and fluorescence signal was measured using Envision at excitation 355 nm and emission 460 nm after 8 hr incubation at RT. Increase in the assay signal was linear over this period and proportional with increase in the enzyme content.
The fluorescence units were transformed to percentage of remaining activity by using the high control (HC, median of fluorescence signal from wells containing MALT1 protein, substrate, and DMSO) and low control (LC, median of fluorescence signal from wells with substrate only) with the formula below: […]
IC50 and Hill coefficient were obtained using Graph Pad Prism (Graph Pad software, Inc, USA) with non-linear regression analysis.

[2] = molecular target: T1, full-length MALT1 protein His-MALT1(1-824); assay: MALT1 protease assay, Assay 2 (1 nM MALT1, Ac-LRSR-AMC substrate); type: biochemical; settings: 1 nM MALT1, 50 μM Ac-LRSR-AMC, 2 h pre-incubation, 8 hr incubation at RT
Outline: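 His-MALT1(1-824) from baculovirus-infected insect cells at 1 nM, preincubated 2 h at RT with compound (0.1% DMSO), then 50 μM Ac-LRSR-AMC in 50 mM Tris pH 7.5, 600 mM sodium citrate, 1 mM DTT, 1 mM EDTA, 0.05% BSA. Fluorescence (ex 355/em 460 nm) after 8 h at RT, normalized to enzyme and substrate-only controls. IC50 and Hill coefficient by non-linear regression.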

[3] = test system: IL10 secretion, OCI-LY10 cells; assay: Human IL10 secretion assay, Assay 2 (Meso Scale Discovery); type: cell-based; settings: 24 h incubation, MSD, read-out: IL-10 Secretion IC50 [nM] Assay 2
Description: (§1) IL10 is one of the cytokines that are regulated via activation of NF-kB signaling. For example, in ABC-DLBCL cell lines, the activated NF-kB signaling leads to increased IL10 secretion. Inhibition of NF-kB signaling has been shown leading to decreased IL10 secretion.
Assay 2: OCI-LY10 cells were seeded in IMEM supplemented with 20% fetal bovine serum at 4.8×10^5 cells per 160 μL per well in 96-well V-bottom cell culture plates (coming, 3894), treated with 120 nL of 3-fold serial compound dilutions, starting at 4 mM. The final vehicle concentration was 0.075% DMSO in all wells. After a 24 h incubation, human IL-10 pre-coated plates (Meso Scale Discovery) were washed 3 times with PBST, and 50 μL culture medium was aspirated into the MSD plate and incubated at 4° C. overnight. The supernatant was then discarded and the wells were washed 3 times with PBST. SULFO-TAG Anti-human IL-10 Antibody (50×) was diluted 50 fold according to the Meso Scale Protocol, then 25 μL of SULFO-TAG Anti-human IL-10 Antibody (1×) was added. After 2 h of incubation at RT, the supernatant was discarded and the well was washed 3 times with PBST. 2× read buffer was added and the signal was read on an MSD Sector S600. The effect of a particular compound on IL10 secretion is shown relative to the effect of DMSO; set as 100%. IC50 values (nM) were determined using 4-parametric curve-fitting.

[4] = test system: IL10 secretion, OCI-LY10 cells; assay: Human IL10 secretion assay, Assay 1 (HTRF); type: cell-based; settings: 24 h incubation, read-out: IL-10 Secretion IC50 [nM] Assay 1
Description: as §1
Assay 1: OCI-LY10 cells were seeded in IMEM supplemented with 20% fetal bovine serum at 3×10^5 cells per well in 96-well round bottom plates (Corning 3799, Corning), treated with 100 nL of 3-fold serial compound dilutions, starting at 10 mM. The final vehicle concentration was 0.1% DMSO in all wells. After 24 h incubation, the cells were transferred to 96-PCR plates (Axygen: PCR-96-FLT-C) and centrifuged, then 16 μL of cell culture media was transferred to HTRF plates and IL10 levels were measured using human IL-10 Assay Kits (Cisbio) using HTRF format. The signals were transformed to percentage of remaining activity by using the high control (HC, median of signal from wells containing cells treated with DMSO) and low control (LC, median of signal from wells with no cells). IC50 values (nM) were determined using 4-parametric curve-fitting and Hill coefficient were obtained using Graph Pad Prism (Graph Pad software, Inc, USA) with non-linear regression analysis.

T1 sequence (Q9UDY8 whole entry): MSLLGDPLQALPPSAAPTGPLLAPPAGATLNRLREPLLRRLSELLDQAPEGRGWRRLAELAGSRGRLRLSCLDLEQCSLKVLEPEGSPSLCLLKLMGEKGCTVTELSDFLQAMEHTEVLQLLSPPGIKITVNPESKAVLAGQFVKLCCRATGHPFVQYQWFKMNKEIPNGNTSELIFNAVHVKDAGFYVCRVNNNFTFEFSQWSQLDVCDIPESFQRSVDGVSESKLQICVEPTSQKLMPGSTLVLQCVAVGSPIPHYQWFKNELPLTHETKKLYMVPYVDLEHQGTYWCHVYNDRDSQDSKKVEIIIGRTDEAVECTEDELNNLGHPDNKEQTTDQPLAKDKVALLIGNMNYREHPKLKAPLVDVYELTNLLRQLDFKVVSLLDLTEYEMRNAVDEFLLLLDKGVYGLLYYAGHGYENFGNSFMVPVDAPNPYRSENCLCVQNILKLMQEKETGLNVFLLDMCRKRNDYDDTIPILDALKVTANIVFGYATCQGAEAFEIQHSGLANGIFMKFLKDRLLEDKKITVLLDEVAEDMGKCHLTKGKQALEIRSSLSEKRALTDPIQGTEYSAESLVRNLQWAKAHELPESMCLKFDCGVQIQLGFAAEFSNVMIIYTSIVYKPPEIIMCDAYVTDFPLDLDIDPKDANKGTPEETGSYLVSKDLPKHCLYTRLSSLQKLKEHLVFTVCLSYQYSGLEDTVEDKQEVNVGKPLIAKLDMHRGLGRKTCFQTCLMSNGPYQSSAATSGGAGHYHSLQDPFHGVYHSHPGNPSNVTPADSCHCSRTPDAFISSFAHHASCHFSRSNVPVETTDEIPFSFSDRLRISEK

Row | SMILES | IC50 [1] [nM] | IC50 [2] [nM] | IC50 [3] [nM] | IC50 [4] [nM]
1 | CNc1ncc(NC(=O)N2C[C@@](C)(C(F)(F)F)c3c2cnc2cc(Cl)nn32)cc1Cl [compound 51, (R)-2-chloro-N-(5-chloro-6-(methylamino)pyridin-3-yl)-8-methyl-8-(trifluoromethyl)-7,8-dihydro-6H-pyrazolo[1,5-a]pyrrolo[2,3-e]pyrimidine-6-carboxamide] | 10 to 100 | – | – | –
2 | C[C@@]1(C(F)(F)F)CN(C(=O)Nc2cnc(-n3cncn3)c(Cl)c2)c2cnc3cc(F)nn3c21 [compound 202, (R)-N-(5-chloro-6-(1H-1,2,4-triazol-1-yl)pyridin-3-yl)-2-fluoro-8-methyl-8-(trifluoromethyl)-7,8-dihydro-6H-pyrazolo[1,5-a]pyrrolo[2,3-e]pyrimidine-6-carboxamide] | – | 10 to 100 | 10 to 100 | 100 to 1000
3 | C[C@@]1(C(F)(F)F)CN(C(=O)Nc2cc(C(F)(F)F)ncc2F)c2cnc3cc(Cl)nn3c21 [compound 96, (R)-2-chloro-N-(5-fluoro-2-(trifluoromethyl)pyridin-4-yl)-8-methyl-8-(trifluoromethyl)-7,8-dihydro-6H-pyrazolo[1,5-a]pyrrolo[2,3-e]pyrimidine-6-carboxamide] | – | 10 to 100 | 100 to 1000 | –
4 | CC(O)c1cnnn1-c1ncc(NC(=O)N2C[C@@](C)(C(F)(F)F)c3c2cnc2cc(F)nn32)cc1C(F)F (stereo partly drawn) [compound 188, (8R)-N-(5-(difluoromethyl)-6-(5-(1-hydroxyethyl)-1H-1,2,3-triazol-1-yl)pyridin-3-yl)-2-fluoro-8-methyl-8-(trifluoromethyl)-7,8-dihydro-6H-pyrazolo[1,5-a]pyrrolo[2,3-e]pyrimidine-6-carboxamide] | – | 10 to 100 | 10 to 100 | 100 to 1000
5 | C[C@@]1(C(F)(F)F)CN(C(=O)Nc2cnc(-n3nccn3)c(C(F)(F)F)c2)c2cnc3cc(Cl)nn3c21 [compound 40, (R)-N-(6-(2H-1,2,3-triazol-2-yl)-5-(trifluoromethyl)pyridin-3-yl)-2-chloro-8-methyl-8-(trifluoromethyl)-7,8-dihydro-6H-pyrazolo[1,5-a]pyrrolo[2,3-e]pyrimidine-6-carboxamide] | – | – | 10 to 100 | 10 to 100
6 | COc1cn(-c2ncc(NC(=O)N3C[C@@](C)(C(F)(F)F)c4c3cnc3cc(Cl)nn43)cc2Cl)nn1 [compound 95, (R)-2-chloro-N-(5-chloro-6-(4-methoxy-1H-1,2,3-triazol-1-yl)pyridin-3-yl)-8-methyl-8-(trifluoromethyl)-7,8-dihydro-6H-pyrazolo[1,5-a]pyrrolo[2,3-e]pyrimidine-6-carboxamide] | – | 10 to 100 | 10 to 100 | –

Continued, values first:

Row | IC50 [1] [nM] | IC50 [2] [nM] | IC50 [3] [nM] | IC50 [4] [nM] | SMILES
7 | 10 to 100 | – | – | – | CC1(C(F)(F)F)CN(C(=O)Nc2cnc(-n3nccn3)c(Cl)c2)c2cnc3cc(C#N)nn3c21 (stereo not shown) [compound 17, N-[5-chloro-6-(triazol-2-yl)-3-pyridyl]-11-cyano-3-methyl-3-(trifluoromethyl)-1,5,8,12-tetrazatricyclo[7.3.0.02,6]dodeca-2(6),7,9,11-tetraene-5-carboxamide]
8 | – | 10 to 100 | 10 to 100 | 10 to 100 | CN1CC[C@H](Oc2cc(NC(=O)N3C[C@@](C)(C(F)(F)F)c4c3cnc3cc(Cl)nn43)cc(C(F)F)n2)C1 [compound 111, (R)-2-chloro-N-(2-(difluoromethyl)-6-(((S)-1-methylpyrrolidin-3-yl)oxy)pyridin-4-yl)-8-methyl-8-(trifluoromethyl)-7,8-dihydro-6H-pyrazolo[1,5-a]pyrrolo[2,3-e]pyrimidine-6-carboxamide]
9 | 10 to 100 | – | – | – | C[C@@]1(C(F)(F)F)CN(C(=O)Nc2cc(Cl)c(=O)n(C(F)F)c2)c2cnc3cc(Cl)nn3c21 [compound 50, (R)-2-chloro-N-(5-chloro-1-(difluoromethyl)-6-oxo-1,6-dihydropyridin-3-yl)-8-methyl-8-(trifluoromethyl)-7,8-dihydro-6H-pyrazolo[1,5-a]pyrrolo[2,3-e]pyrimidine-6-carboxamide]
10 | – | 10 to 100 | 10 to 100 | 100 to 1000 | C[C@@]1(C(F)(F)F)CN(C(=O)Nc2cc(OC(F)F)cc(O[C@H]3CCNC3)n2)c2cnc3cc(Cl)nn3c21 [compound 133, (R)-2-chloro-N-(4-(difluoromethoxy)-6-(((S)-pyrrolidin-3-yl)oxy)pyridin-2-yl)-8-methyl-8-(trifluoromethyl)-7,8-dihydro-6H-pyrazolo[1,5-a]pyrrolo[2,3-e]pyrimidine-6-carboxamide]
11 | – | 10 to 100 | 10 to 100 | 100 to 1000 | C[C@@]1(C(F)(F)F)CN(C(=O)Nc2cnc(N3CCOC3=O)c(C(F)F)c2)c2cnc3cc(Cl)nn3c21 [compound 113, (R)-2-chloro-N-(5-(difluoromethyl)-6-(2-oxooxazolidin-3-yl)pyridin-3-yl)-8-methyl-8-(trifluoromethyl)-7,8-dihydro-6H-pyrazolo[1,5-a]pyrrolo[2,3-e]pyrimidine-6-carboxamide]
12 | – | 10 to 100 | 10 to 100 | 100 to 1000 | Cc1cn2ncc3c(c2n1)C(C)(C)CN3C(=O)Nc1cnc(-n2nccn2)c(Cl)c1 [compound 134, N-(5-chloro-6-(2H-1,2,3-triazol-2-yl)pyridin-3-yl)-2,9,9-trimethyl-8,9-dihydro-7H-imidazo[1,2-b]pyrrolo[3,2-d]pyridazine-7-carboxamide]
13 | – | 10 to 100 | 10 to 100 | 10 to 100 | CN(C)C(=O)c1ncc(NC(=O)N2C[C@@](C)(C(F)(F)F)c3c2cnc2cc(Cl)nn32)cc1Cl [compound 123, (R)-2-chloro-N-(5-chloro-6-(dimethylcarbamoyl)pyridin-3-yl)-8-methyl-8-(trifluoromethyl)-7,8-dihydro-6H-pyrazolo[1,5-a]pyrrolo[2,3-e]pyrimidine-6-carboxamide]
14 | – | – | 10 to 100 | 10 to 100 | CN(C)C(=O)c1ncc(NC(=O)N2C[C@@](C)(C(F)(F)F)c3c2cnc2cc(Cl)nn32)cc1C(F)F [compound 122, (R)-2-chloro-N-(5-(difluoromethyl)-6-(dimethylcarbamoyl)pyridin-3-yl)-8-methyl-8-(trifluoromethyl)-7,8-dihydro-6H-pyrazolo[1,5-a]pyrrolo[2,3-e]pyrimidine-6-carboxamide]
15 | – | – | 10 to 100 | 10 to 100 | C[C@@]1(C(F)(F)F)CN(C(=O)Nc2cnc(-n3nccn3)c(C(F)(F)F)c2)c2cnc3cc(F)nn3c21 [compound 181, (R)-N-(6-(2H-1,2,3-triazol-2-yl)-5-(trifluoromethyl)pyridin-3-yl)-2-fluoro-8-methyl-8-(trifluoromethyl)-7,8-dihydro-6H-pyrazolo[1,5-a]pyrrolo[2,3-e]pyrimidine-6-carboxamide]
